Pest or weed control data for five molecules are collected here from patent US12077503B2, “Substituted cyclic amides and their use as herbicides” (FMC CORPORATION, priority 2015, dated 2024).

Where two headings read alike, the source gives them in different places.

Holding throughout (experiment): Test A preemergence
Common to all, as to format: in vivo

One test concerns Kochia (Kochia scoparia). As to conditions: Bassia scoparia, pre-emergence, 240 h; for pest or weed control at 125 g/ha: 125 g ai/ha; for pest or weed control at 500 g/ha: 500 g ai/ha. Put shortly: (§1)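 Each rating is a visual injury score from 0 to 100 given about 10 d after treatment, judged against untreated controls kept alongside in the greenhouse. In loam soil–sand blend, seeds got a preemergence directed soil spray, while postemergence plants were 2 to 10 cm tall at spraying.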

Test [1] concerns barnyardgrass (Echinochloa crus-galli). As to conditions: Echinochloa crus-galli, pre-emergence, 240 h; for pest or weed control at 125 g/ha: 125 g ai/ha; for pest or weed control at 500 g/ha: 500 g ai/ha. Put shortly: as §1
Test [2] has as its system giant foxtail (Setaria faberii). Conditions: Setaria faberi, pre-emergence, 240 h; for pest or weed control at 125 g/ha: 125 g ai/ha; for pest or weed control at 500 g/ha: 500 g ai/ha. The procedure, abridged: as §1
The test system of test [3] is pigweed (Amaranthus retroflexus). Conditions: Amaranthus retroflexus, pre-emergence, 240 h; for pest or weed control at 125 g/ha: 125 g ai/ha; for pest or weed control at 500 g/ha: 500 g ai/ha.
For test [4], the system named is ragweed (common ragweed, Ambrosia elatior). Conditions: Ambrosia artemisiifolia, pre-emergence, 240 h; for pest or weed control at 125 g/ha: 125 g ai/ha; for pest or weed control at 500 g/ha: 500 g ai/ha. The procedure, abridged:
as §1

Test [5] concerns ryegrass, Italian (Italian ryegrass, Lolium multiflorum). Conditions: Lolium multiflorum, pre-emergence, 240 h; for pest or weed control at 125 g/ha: 125 g ai/ha; for pest or weed control at 500 g/ha: 500 g ai/ha. Put shortly:
as §1

Where [6] appears, read: preemergence, visual rating after approx. 10 d, 0 to 100 scale where 0 is no effect and 100 is complete control, read-out: Plant response rating, Kochia.
Where [7] appears, read: preemergence, visual rating after approx. 10 d, 0 to 100 scale where 0 is no effect and 100 is complete control, read-out: Plant response rating, Barnyardgrass.
[8] abbreviates: preemergence, visual rating after approx. 10 d, 0 to 100 scale where 0 is no effect and 100 is complete control, read-out: Plant response rating, Foxtail, Giant.
Where [9] appears, read: preemergence, visual rating after approx. 10 d, 0 to 100 scale where 0 is no effect and 100 is complete control, read-out: Plant response rating, Pigweed.
The mark [10] stands for this setting: preemergence, visual rating after approx. 10 d, 0 to 100 scale where 0 is no effect and 100 is complete control, read-out: Plant response rating, Ragweed.
Setting [11] is: preemergence, visual rating after approx. 10 d, 0 to 100 scale where 0 is no effect and 100 is complete control, read-out: Plant response rating, Ryegrass, Italian.
Setting [12] is: preemergence, 0 to 100 scale where 0 is no effect and 100 is complete control, read-out: Kochia plant response rating.
The mark [13] stands for this setting: preemergence, 0 to 100 scale where 0 is no effect and 100 is complete control, read-out: Barnyardgrass plant response rating.
The mark [14] stands for this setting: preemergence, 0 to 100 scale where 0 is no effect and 100 is complete control, read-out: Foxtail, Giant plant response rating.
Setting [15] is: preemergence, 0 to 100 scale where 0 is no effect and 100 is complete control, read-out: Pigweed plant response rating.
[16] abbreviates: preemergence, 0 to 100 scale where 0 is no effect and 100 is complete control, read-out: Ragweed plant response rating.

With `CN1C[C@H](c2ccc(C#N)cc2)[C@@H](C(=O)Nc2cccc(F)c2F)C1=O` (racemic) [Compound 775], the pest or weed control at 125 g/ha with Kochia (Kochia scoparia) (setting [6]) worked out at 30%; in test [1] (setting [7]), 60%; in test [2] (setting [8]) it was 80%; in test [3] (setting [9]) it was 30%; in test [4] (setting [10]), 50%; in test [5] (setting [11]), 0%. The pest or weed control at 500 g/ha in the test on Kochia (Kochia scoparia) (Preemergence, visual injury vs untreated controls after approximately 10 d, read-out: Kochia plant response rating (0 to 100 scale where 0 is no effect and 100 is complete control)) amounted to 80%; in test [1] (Preemergence, visual injury vs untreated controls after approximately 10 d, read-out: Barnyardgrass plant response rating (0 to 100 scale where 0 is no effect and 100 is complete control)), 100%; in test [2] (Preemergence, visual injury vs untreated controls after approximately 10 d, read-out: Foxtail, Giant plant response rating (0 to 100 scale where 0 is no effect and 100 is complete control)) it was 100%; in test [3] (Preemergence, visual injury vs untreated controls after approximately 10 d, read-out: Pigweed plant response rating (0 to 100 scale where 0 is no effect and 100 is complete control)), 70%; in test [4] (Preemergence, visual injury vs untreated controls after approximately 10 d, read-out: Ragweed plant response rating (0 to 100 scale where 0 is no effect and 100 is complete control)), 80%; in test [5] (Preemergence, visual injury vs untreated controls after approximately 10 d, read-out: Ryegrass, Italian plant response rating (0 to 100 scale where 0 is no effect and 100 is complete control)), 0%.

On to `CSc1ccccc1NC(=O)[C@H]1C(=O)N(C)CC[C@@H]1c1ccc(C(F)(F)F)cc1` [Compound 1227], for which the pest or weed control at 125 g/ha in the test with Kochia (Kochia scoparia) (preemergence, visual injury rating, 0 to 100 scale where 0 is no effect and 100 is complete control, approximately 10 d, read-out: Kochia plant response rating) is 0%; in test [1] (preemergence, visual injury rating, 0 to 100 scale where 0 is no effect and 100 is complete control, approximately 10 d, read-out: Barnyardgrass plant response rating) it was 0%; in test [2] (preemergence, visual injury rating, 0 to 100 scale where 0 is no effect and 100 is complete control, approximately 10 d, read-out: Foxtail, Giant plant response rating), 50%; in test [3] (preemergence, visual injury rating, 0 to 100 scale where 0 is no effect and 100 is complete control, approximately 10 d, read-out: Pigweed plant response rating), 30%; in test [4] (preemergence, visual injury rating, 0 to 100 scale where 0 is no effect and 100 is complete control, approximately 10 d, read-out: Ragweed plant response rating), 0%; in test [5] (preemergence, visual injury rating, 0 to 100 scale where 0 is no effect and 100 is complete control, approximately 10 d, read-out: Ryegrass, Italian plant response rating), 20%. Moreover, the pest or weed control at 500 g/ha in the test on Kochia (Kochia scoparia) (setting [12]) worked out at 0%; in test [1] (setting [13]) it was 40%; in test [2] (setting [14]), 90%; in test [3] (setting [15]), 60%; in test [4] (setting [16]) it was 0%; in test [5] (preemergence, 0 to 100 scale where 0 is no effect and 100 is complete control, read-out: Ryegrass, Italian plant response rating), 70%.

In the case of `CN1C[C@H](c2cccc(C(C)(F)F)c2)[C@@H](C(=O)Nc2ccc(F)cc2F)C1=O` [Compound 1319], the pest or weed control at 500 g/ha amounted to 80% in the test on Kochia (Kochia scoparia) (setting [12]); 90% in test [1] (setting [13]); 90% in test [2] (setting [14]); 60% in test [3] (setting [15]); 20% in test [4] (setting [16]). For the same molecule, the pest or weed control at 125 g/ha in the test with Kochia (Kochia scoparia) (Preemergence, 0 to 100 scale (0 no effect, 100 complete control), read-out: Plant response rating, Kochia) came to 80%; in test [1] (Preemergence, 0 to 100 scale (0 no effect, 100 complete control), read-out: Plant response rating, Barnyardgrass) it was 90%; in test [2] (Preemergence, 0 to 100 scale (0 no effect, 100 complete control), read-out: Plant response rating, Foxtail, Giant), 90%; in test [3] (Preemergence, 0 to 100 scale (0 no effect, 100 complete control), read-out: Plant response rating, Pigweed), 0%; in test [4] (Preemergence, 0 to 100 scale (0 no effect, 100 complete control), read-out: Plant response rating, Ragweed), 0%; in test [5] (Preemergence, 0 to 100 scale (0 no effect, 100 complete control), read-out: Plant response rating, Ryegrass, Italian), 30%.

Take `Cc1ccc([C@H]2CNC(=S)[C@@H]2C(=O)Nc2cccc(F)c2F)cc1C` [Compound 765]: the pest or weed control at 125 g/ha is 0% in the test with Kochia (Kochia scoparia) (setting [6]); 100% in test [1] (setting [7]); 30% in test [2] (setting [8]); 0% in test [3] (setting [9]); 0% in test [4] (setting [10]); 0% in test [5] (setting [11]). For the same molecule, the pest or weed control at 500 g/ha was 0% in the test with Kochia (Kochia scoparia) (preemergence, 0 to 100 scale, 0 = no effect, 100 = complete control, read-out: Plant response rating, Kochia); 100% in test [1] (preemergence, 0 to 100 scale, 0 = no effect, 100 = complete control, read-out: Plant response rating, Barnyardgrass); 80% in test [2] (preemergence, 0 to 100 scale, 0 = no effect, 100 = complete control, read-out: Plant response rating, Foxtail, Giant); 0% in test [3] (preemergence, 0 to 100 scale, 0 = no effect, 100 = complete control, read-out: Plant response rating, Pigweed); 30% in test [4] (preemergence, 0 to 100 scale, 0 = no effect, 100 = complete control, read-out: Plant response rating, Ragweed).

As to `Cc1cc([C@H]2CN(C)C(=O)[C@@H]2C(=O)Nc2cccc(F)c2F)cc(C)c1C` [Compound 796], the pest or weed control at 125 g/ha is 20% in the test with Kochia (Kochia scoparia) (setting [6]); 90% in test [1] (setting [7]); 90% in test [2] (setting [8]); 40% in test [3] (setting [9]); 0% in test [4] (setting [10]); 20% in test [5] (setting [11]). The pest or weed control at 31 g/ha with Kochia (Kochia scoparia) (Preemergence, 31 g ai/ha, 0 to 100 scale (0 no effect, 100 complete control), read-out: Plant response rating, Kochia) stood at 0%; in test [1] (Preemergence, 31 g ai/ha, 0 to 100 scale (0 no effect, 100 complete control), read-out: Plant response rating, Barnyardgrass) it was 70%; in test [2] (Preemergence, 31 g ai/ha, 0 to 100 scale (0 no effect, 100 complete control), read-out: Plant response rating, Foxtail, Giant) it was 90%; in test [3] (Preemergence, 31 g ai/ha, 0 to 100 scale (0 no effect, 100 complete control), read-out: Plant response rating, Pigweed), 20%; in test [4] (Preemergence, 31 g ai/ha, 0 to 100 scale (0 no effect, 100 complete control), read-out: Plant response rating, Ragweed), 0%; in test [5] (Preemergence, 31 g ai/ha, 0 to 100 scale (0 no effect, 100 complete control), read-out: Plant response rating, Ryegrass, Italian) it was 0%.
